One assay deals with T1, 5-hydroxytryptamine receptor 2A (Homo sapiens, UniProt P28223). As to the kind of experiment: Displacement of [3H]Ketanserin from human recombinant 5-HT2A receptor expressed in CHO-K1 cells at 10 uM after 15 mins. It is filed as cell-based. For orientation: In a radioligand displacement assay an active substance lowers the binding of a labelled ligand.
T1 sequence (P28223 whole entry): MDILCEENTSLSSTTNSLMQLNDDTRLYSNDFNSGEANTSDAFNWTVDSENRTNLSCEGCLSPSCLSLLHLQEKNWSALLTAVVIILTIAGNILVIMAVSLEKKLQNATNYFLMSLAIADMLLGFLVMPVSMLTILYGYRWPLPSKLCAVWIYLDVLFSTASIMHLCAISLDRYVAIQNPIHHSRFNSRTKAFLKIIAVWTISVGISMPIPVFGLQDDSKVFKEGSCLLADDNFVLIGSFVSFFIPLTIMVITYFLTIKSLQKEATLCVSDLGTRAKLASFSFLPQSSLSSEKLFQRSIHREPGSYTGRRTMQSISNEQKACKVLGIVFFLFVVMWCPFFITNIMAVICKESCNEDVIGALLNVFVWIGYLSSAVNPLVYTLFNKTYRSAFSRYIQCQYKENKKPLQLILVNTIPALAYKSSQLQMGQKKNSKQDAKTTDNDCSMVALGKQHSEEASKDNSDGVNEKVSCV
T2 sequence (P50406 whole entry): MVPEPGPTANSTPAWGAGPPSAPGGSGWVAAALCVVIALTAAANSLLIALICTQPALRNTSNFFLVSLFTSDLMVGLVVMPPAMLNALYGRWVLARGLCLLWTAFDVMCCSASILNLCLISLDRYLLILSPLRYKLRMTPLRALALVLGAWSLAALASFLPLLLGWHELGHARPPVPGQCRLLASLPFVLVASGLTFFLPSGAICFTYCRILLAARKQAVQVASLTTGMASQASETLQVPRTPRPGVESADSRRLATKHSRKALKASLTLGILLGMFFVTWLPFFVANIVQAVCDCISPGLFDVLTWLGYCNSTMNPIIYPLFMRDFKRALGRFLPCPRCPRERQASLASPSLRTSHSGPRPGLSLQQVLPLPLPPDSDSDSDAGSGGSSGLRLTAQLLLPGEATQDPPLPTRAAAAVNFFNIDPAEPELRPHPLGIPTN
For orientation: inhibition means the change of the read-out against control, counted positive when it falls. For `COc1ccc(OC)c(S(=O)(=O)n2cc(/C=N/N=C/N(C)C)c3c([N+](=O)[O-])cccc32)c1`, the inhibition was found to be 84.4%.
Consider `COc1ccc(S(=O)(=O)n2cc(/C=N/N=C/N(C)C)c3c([N+](=O)[O-])cccc32)cc1`, for which the inhibition turned out to be 90.7%.
With `Cc1ccc(S(=O)(=O)n2cc(/C=N/N=C/N(C)C)c3c([N+](=O)[O-])cccc32)cc1`, the inhibition came to 88.3%.
`CN(C)/C=N/N=C/c1cn(S(=O)(=O)c2ccc(F)cc2)c2cccc([N+](=O)[O-])c12`: the inhibition was found to be 94.2%.
As to `CN(C)/C=N/N=C/c1cn(S(=O)(=O)c2cccc3ccccc23)c2cccc([N+](=O)[O-])c12`, the inhibition amounted to 94.6%.
Consider `COc1ccc(Cl)cc1S(=O)(=O)n1cc(/C=N/N=C/N(C)C)c2c([N+](=O)[O-])cccc21`, for which the inhibition came to 75.9%.
`CN(C)/C=N/N=C/c1cn(S(=O)(=O)c2ccc3ccccc3c2)c2cccc([N+](=O)[O-])c12`: the inhibition was found to be 88%.
Turning to `CN(C)/C=N/N=C/c1cn(S(=O)(=O)c2ccccc2)c2cccc([N+](=O)[O-])c12`, the inhibition turned out to be 83.9%.
Turning to `CN(C)/C=N/N=C/c1cn(S(=O)(=O)c2ccc(I)cc2)c2cccc([N+](=O)[O-])c12`, the inhibition amounted to 85.2%.

Another assay concerns the target T2, 5-hydroxytryptamine receptor 6 (Homo sapiens, UniProt P50406). As to the kind of experiment: Inhibition of human recombinant 5-HT6 receptor expressed in HEK293 cells assessed as inhibition of 5-HT-induced increase in […] pretreated at 10 uM for 10 mins by cAMP accumulation assay. It is filed as functional, cell-based. Background: cAMP levels reflect the balance of adenylyl cyclase and phosphodiesterase activity.
For the molecule `COc1ccc(OC)c(S(=O)(=O)n2cc(/C=N/N=C/N(C)C)c3c([N+](=O)[O-])cccc32)c1`, the inhibition turned out to be 78.2%.
`COc1ccc(S(=O)(=O)n2cc(/C=N/N=C/N(C)C)c3c([N+](=O)[O-])cccc32)cc1`: the inhibition was found to be 78.6%.
On to `Cc1ccc(S(=O)(=O)n2cc(/C=N/N=C/N(C)C)c3c([N+](=O)[O-])cccc32)cc1`, for which the inhibition was 75.2%.
For the molecule `CCCCc1ccc(S(=O)(=O)n2cc(/C=N/N=C/N(C)C)c3c([N+](=O)[O-])cccc32)cc1`, the inhibition stood at 11.3%.
Turning to `CN(C)/C=N/N=C/c1cn(S(=O)(=O)c2ccc(F)cc2)c2cccc([N+](=O)[O-])c12`, the inhibition was 63.9%.
As for `CN(C)/C=N/N=C/c1cn(S(=O)(=O)c2cccc3ccccc23)c2cccc([N+](=O)[O-])c12`, the inhibition worked out at 73.9%.
`COc1ccc(Cl)cc1S(=O)(=O)n1cc(/C=N/N=C/N(C)C)c2c([N+](=O)[O-])cccc21`: the inhibition was determined as 87.7%.
With `CN(C)/C=N/N=C/c1cn(S(=O)(=O)c2ccc3ccccc3c2)c2cccc([N+](=O)[O-])c12`, the inhibition came to 68%.
On the same count and under the same terms, as for `CN(C)/C=N/N=C/c1cn(S(=O)(=O)c2ccccc2)c2cccc([N+](=O)[O-])c12`, the figure is 78.1%; as for `CN(C)/C=N/N=C/c1cn(S(=O)(=O)c2ccc(I)cc2)c2cccc([N+](=O)[O-])c12`, 62.4%.

The target of another assay is T1, 5-hydroxytryptamine receptor 2A. Kind of assay: Displacement of [3H]Ketanserin from human recombinant 5-HT2A receptor expressed in CHO-K1 cells after 15 mins. It is filed as cell-based.
Broadly, the IC50 is the concentration that inhibits the measured activity by half. As for `COc1ccc(OC)c(S(=O)(=O)n2cc(/C=N/N=C/N(C)C)c3c([N+](=O)[O-])cccc32)c1`, the IC50 was 479 nM.
As to `COc1ccc(S(=O)(=O)n2cc(/C=N/N=C/N(C)C)c3c([N+](=O)[O-])cccc32)cc1`, the concentration for half-maximal inhibition (IC50) came out at 205 nM.
For `Cc1ccc(S(=O)(=O)n2cc(/C=N/N=C/N(C)C)c3c([N+](=O)[O-])cccc32)cc1`, the IC50 came to 253 nM.
With `CN(C)/C=N/N=C/c1cn(S(=O)(=O)c2ccc(F)cc2)c2cccc([N+](=O)[O-])c12`, the IC50 worked out at 702 nM.
Regarding `CN(C)/C=N/N=C/c1cn(S(=O)(=O)c2cccc3ccccc23)c2cccc([N+](=O)[O-])c12`, the IC50 turned out to be 555 nM.
On to `COc1ccc(Cl)cc1S(=O)(=O)n1cc(/C=N/N=C/N(C)C)c2c([N+](=O)[O-])cccc21`, for which the IC50 was determined as 1590 nM.
In the case of `CN(C)/C=N/N=C/c1cn(S(=O)(=O)c2ccc3ccccc3c2)c2cccc([N+](=O)[O-])c12`, the concentration for half-maximal inhibition (IC50) was determined as 433 nM.
As to `CN(C)/C=N/N=C/c1cn(S(=O)(=O)c2ccccc2)c2cccc([N+](=O)[O-])c12`, the IC50 came to 329 nM.
On to `CN(C)/C=N/N=C/c1cn(S(=O)(=O)c2ccc(I)cc2)c2cccc([N+](=O)[O-])c12`, for which the IC50 came to 247 nM.

The target in a further assay is T3, 5-hydroxytryptamine receptor 2C (Homo sapiens) (UniProt P28335).
T3 sequence (whole entry): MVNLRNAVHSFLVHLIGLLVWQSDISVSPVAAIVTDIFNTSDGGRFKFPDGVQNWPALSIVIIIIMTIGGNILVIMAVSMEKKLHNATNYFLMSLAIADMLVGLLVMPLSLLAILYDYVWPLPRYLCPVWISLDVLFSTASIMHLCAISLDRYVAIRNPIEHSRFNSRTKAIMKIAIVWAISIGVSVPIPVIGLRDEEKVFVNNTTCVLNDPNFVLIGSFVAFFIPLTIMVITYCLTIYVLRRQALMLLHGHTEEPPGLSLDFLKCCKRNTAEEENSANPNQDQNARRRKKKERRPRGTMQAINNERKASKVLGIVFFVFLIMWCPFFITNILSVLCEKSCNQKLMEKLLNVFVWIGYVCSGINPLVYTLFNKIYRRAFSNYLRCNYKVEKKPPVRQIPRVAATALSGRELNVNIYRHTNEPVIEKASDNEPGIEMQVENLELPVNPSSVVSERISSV
As to the kind of experiment: Displacement of [3H]Mesulergine from human recombinant 5-HT2C receptor expressed in CHO-K1 cells at 10 uM after 15 mins. Type of assay: cell-based.
Regarding `COc1ccc(OC)c(S(=O)(=O)n2cc(/C=N/N=C/N(C)C)c3c([N+](=O)[O-])cccc32)c1`, the inhibition was 48.1%.
On the same count and under the same terms, in the case of `COc1ccc(S(=O)(=O)n2cc(/C=N/N=C/N(C)C)c3c([N+](=O)[O-])cccc32)cc1` it was 67.8%; in that of `Cc1ccc(S(=O)(=O)n2cc(/C=N/N=C/N(C)C)c3c([N+](=O)[O-])cccc32)cc1`, 82.3%; in that of `CN(C)/C=N/N=C/c1cn(S(=O)(=O)c2ccc(F)cc2)c2cccc([N+](=O)[O-])c12`, 55.5%.
As for `CN(C)/C=N/N=C/c1cn(S(=O)(=O)c2cccc3ccccc23)c2cccc([N+](=O)[O-])c12`, the inhibition amounted to 64.2%.
As for `COc1ccc(Cl)cc1S(=O)(=O)n1cc(/C=N/N=C/N(C)C)c2c([N+](=O)[O-])cccc21`, the inhibition was 44.9%.
Regarding `CN(C)/C=N/N=C/c1cn(S(=O)(=O)c2ccc3ccccc3c2)c2cccc([N+](=O)[O-])c12`, the inhibition was found to be 80.1%.
With `CN(C)/C=N/N=C/c1cn(S(=O)(=O)c2ccccc2)c2cccc([N+](=O)[O-])c12`, the inhibition came out at 48.4%.
Take `CN(C)/C=N/N=C/c1cn(S(=O)(=O)c2ccc(I)cc2)c2cccc([N+](=O)[O-])c12`: the inhibition is 66.2%.

The target in the next assay is T4, 5-hydroxytryptamine receptor 2C (Homo sapiens, UniProt P28335).
T4 sequence (P28335 whole entry): T3 sequence (whole entry)
Kind of assay: Displacement of [3H]Mesulergine from human recombinant 5-HT2C receptor expressed in CHO-K1 cells after 15 mins. It is filed as cell-based.
`COc1ccc(S(=O)(=O)n2cc(/C=N/N=C/N(C)C)c3c([N+](=O)[O-])cccc32)cc1`: the IC50 came out at 1040 nM.
`Cc1ccc(S(=O)(=O)n2cc(/C=N/N=C/N(C)C)c3c([N+](=O)[O-])cccc32)cc1`: the IC50 is 480 nM.
With `CN(C)/C=N/N=C/c1cn(S(=O)(=O)c2ccc3ccccc3c2)c2cccc([N+](=O)[O-])c12`, the IC50 stood at 463 nM.

A further assay concerns the target T2, 5-hydroxytryptamine receptor 6. As to the kind of experiment: Inhibition of human recombinant 5-HT6 receptor expressed in HEK293 cells assessed as inhibition of 5-HT-induced increase in […] pretreated for 10 mins by cAMP accumulation assay. Type of assay: functional, cell-based.
As to `COc1ccc(OC)c(S(=O)(=O)n2cc(/C=N/N=C/N(C)C)c3c([N+](=O)[O-])cccc32)c1`, the concentration for half-maximal inhibition (IC50) came out at 1400 nM.
As for `COc1ccc(S(=O)(=O)n2cc(/C=N/N=C/N(C)C)c3c([N+](=O)[O-])cccc32)cc1`, the half-inhibitory concentration (IC50) was found to be 740 nM.
Same read-out and setting: as for `Cc1ccc(S(=O)(=O)n2cc(/C=N/N=C/N(C)C)c3c([N+](=O)[O-])cccc32)cc1`, the figure is 2120 nM; as for `CN(C)/C=N/N=C/c1cn(S(=O)(=O)c2ccc(F)cc2)c2cccc([N+](=O)[O-])c12`, 4970 nM; as for `CN(C)/C=N/N=C/c1cn(S(=O)(=O)c2cccc3ccccc23)c2cccc([N+](=O)[O-])c12`, 2960 nM.
For `COc1ccc(Cl)cc1S(=O)(=O)n1cc(/C=N/N=C/N(C)C)c2c([N+](=O)[O-])cccc21`, the half-inhibitory concentration (IC50) turned out to be 2440 nM.
For `CN(C)/C=N/N=C/c1cn(S(=O)(=O)c2ccc3ccccc3c2)c2cccc([N+](=O)[O-])c12`, the IC50 was found to be 2530 nM.
For `CN1CCN(c2nc3ccc(NS(=O)(=O)c4cccc5ccccc45)cc3s2)CC1`, the IC50 came out at 3900 nM.
As to `CN(C)/C=N/N=C/c1cn(S(=O)(=O)c2ccccc2)c2cccc([N+](=O)[O-])c12`, the IC50 is 1830 nM.
Still for that read-out and setting: in the case of `CN(C)/C=N/N=C/c1cn(S(=O)(=O)c2ccc(I)cc2)c2cccc([N+](=O)[O-])c12` it was 6340 nM.

For the origin of these results see ChEMBL document CHEMBL3397012, “Synthesis and biological evaluation of 4-nitroindole derivatives as 5-HT2A receptor antagonists” (Bioorg Med Chem, 2015).
